How the values were obtained:
[1] = tested on: Molt-4 lymphoblastic leukemia cells; assay: Cytotoxicity of jasmonate derivatives in Molt-4 cells (Example 1, XTT/MTS assay); type: cell-based, Human; settings: for Cytotoxic potency at 0.1 mM, first screening: Molt-4, 0.1 mM; for Cytotoxic potency, second screen: Molt-4, 0.01-0.1 mM, FIG. 2; for Cytotoxic potency compared to methyl jasmonate, first screening: Molt-4, 0.1-1 mM, FIGS. 1A and 1B; for Cytotoxic potency compared to methyl jasmonate, third screen: Molt-4, FIG. 3 and Table 1; for inhibition at 1 µM / inhibition at 10 µM / inhibition at 100 µM: Homo sapiens, MOLT-4, 24 hours, value (±spread), read-out: Cytotoxicity in Molt-4 cells (% of inhibition compared to control); for inhibition at 1 µM: 0.001 mM; for inhibition at 10 µM: 0.01 mM; for inhibition at 100 µM: 0.1 mM
Method: (§1) Measurement of reduction in the number of living cells was determined by the CellTiter 96 Aqueous Non-Radioactive Cell Proliferation Assay (XTT Cell Proliferation Kit assay (Biological industries, Beit-Haemek, Israel)). Upon completion of a given experiment, MTS (a tetrazolium compound) at 333 μg/ml+phenazine methosulfate (at 25 μM) was added to each well of the 96-well plate for 1 hour at 37° C. This allowed for development of a color reaction in which dehydrogenases reduce the MTS in metabolically active cells. Soluble MTS formazan product was measured at a wavelength of 490 nm using a CERES 900 HDI ELISA reader (Bio-Tek Instruments, Inc, Highland Park, Vt.).
(§2) Percentage of Optical density is directly proportional to the number of living cells in culture. Cytotoxicity (%) was calculated in the following way: [(OD of control cells —OD of drug-treated cells)/OD of control cells]×100.
The cytotoxicity of jasmonate derivatives A1-A6, B1 and B2 was compared to that of the previously studied jasmonate, methyl jasmonate (MJ). The cytotoxicity of each compound was determined in Molt-4-Human acute lymphoblastic leukemia cell-line.
[…] Each experimental point was performed in triplicates. Untreated cells were used as control. The test compounds were prepared as a stock of 100 mM in DMSO. Dilutions were performed in culture medium and DMSO so that the maximal concentration of DMSO in each well was 0.5%. […] Cytotoxicity and optical density were determined as described above.

[2] = tested on: normal peripheral blood lymphocytes (PBL), +PHA/TPA; assay: Cytotoxicity in normal PBL pre-incubated with PHA/TPA (Example 2); type: cell-based; settings: Homo sapiens, Lymphocyte, 24 h, one day incubation
Method: as §1, §2
(§3) Molt-4 (leukemia) cells (at 2.5×10^4/ml), and normal peripheral blood lymphocytes (PBL, at 2×10^5/ml) were incubated in 96-well plates for one day in the presence of different concentrations of methyl jasmonate, (MJ—disclosed in U.S. Pat. No. 6,469,061), and compounds A3 and A4 of the present invention at concentrations: of 0.001, 0.01, 0.1 and 0.5 mM. In some experiments, PBL were pre-incubated with 0.8 μg/ml phytohemagglutinin (PHA)+5 ng/ml TPA for […], to induce entrance into the cell cycle. These cells proliferate and therefore are similar in that respect to cancer cells, making the comparison more valid. The optical density that represented viable cells was determined as described above.

Molt-4 (leukemia) cells [3] = assay: Cytotoxicity in Molt-4 cells (Example 2, selectivity); type: cell-based; settings: Homo sapiens, 24 h; Molt-4, one day incubation
Method: as §1, §2, §3

[4] = tested on: normal peripheral blood lymphocytes (PBL), -PHA/TPA; assay: Cytotoxicity in normal PBL without PHA/TPA (Example 2); type: cell-based, Human; settings: for IC20 / IC50: Homo sapiens, Lymphocyte, 24 h, PBL -PHA/TPA, one day incubation; for Selective cytotoxic effect: leukemic cells vs normal lymphocytes: Molt-4 vs PBL, FIGS. 4A and 4B
Method: as §1, §2, §3

PBL, healthy donors = assay: Cytotoxicity of B3 in PBL of healthy donors (Example 4); type: cell-based, Human
Method: as §1, §2
(§4) Mononuclear cells were isolated from peripheral blood of healthy donors and treated as described above. The non-adherent PBL were pre-incubated without PHA and TPA. Molt-4 and PBL cells were seeded in 96-well plates as described above.
(§5) Compound B3 was added at concentration ranging from 0.0025-1 mM for 24 hours. The number of repeats for each experiment is indicated by n. Untreated cells were used as control. […] Optical density and percentage of Cytotoxicity were determined as described above.

Molt-4 = assay: Cytotoxicity of B3 in Molt-4 (Example 4); type: cell-based; settings: Homo sapiens; Molt-4, 24 hours, n=12
Method: as §1, §2, §4, §5

HTB38 = assay: Cytotoxicity of B3 in HTB38 (Example 4); type: cell-based; settings: Homo sapiens, HTB-38; HTB38, 24 hours, n=3
Method: as §1, §2
(§6) Compound B3 was added at concentration ranging from 0.0025-1 mM for 24 hours. The number of repeats for each experiment is indicated by n. Untreated cells were used as control. Compound B3 was prepared as a stock of 100 mM in 100% DMSO and dilutions in medium were prepared as described above. Optical density and percentage of Cytotoxicity were determined as described above.

[5] = tested on: CLL (PBL, chronic lymphocytic leukemia); assay: Cytotoxicity of B3 in CLL cells (Example 4); type: cell-based; settings: Homo sapiens, CLL cell, 24 hours, n=14
Method: as §1, §2
Cytotoxicity of compound B3 was evaluated in 1) Molt 4 cells (an in-vitro model for transformed cells); 2) PBL (an ex vivo model for normal cells); and 3) PBL CLL—Peripheral blood lymphocytes collected from chronic lymphocytic leukemia patients (an ex vivo model for ex vivo transformed cells). […]
Compound B3 was added at concentration ranging from 0.0025-1 mM for 24 hours. […] Optical density and percentage of Cytotoxicity were determined as described above.

LNCaP = assay: Cytotoxicity of B3 in LNCaP (Example 4); type: cell-based; settings: Homo sapiens, 24 hours, n=4
Method: as §1, §2, §6

Fibroblasts = assay: Cytotoxicity of B3 in fibroblasts (Example 4); type: cell-based; settings: Homo sapiens, Fibroblast, 24 hours, n=2
Method: as §1, §2, §6

NCI H460 = assay: Cytotoxicity of B3 in NCI H460 (Example 4); type: cell-based; settings: Homo sapiens; NCI H460, 24 hours, n=3
Method: as §1, §2, §6

B16 = assay: Cytotoxicity of B3 in B16 (Example 4); type: cell-based; settings: Mus musculus; B16, 24 hours, n=6
Method: as §1, §2, §6

Molt-4 cell line = assay: Cytotoxicity of different batches of B3 towards Molt-4 (Example 5); type: cell-based, Human
Method: as §1, §2
The IC50 values in Molt-4 cells for B3 were 0.06 mM in average. For cytotoxicity evaluation in different cell lines B3-IV was used.

Molt 4 cell line = assay: ATP depletion in Molt-4 (CellTiter-Glo luminescent assay, Example 7); type: cell-based; settings: Homo sapiens; Molt-4, 1 hr exposure
Method: The effect of methyl jasmonate and compound B3 on ATP level depletion is studied in the Molt 4 cell line using ATP kit and luminometer (Cell titer—Glo Luminescent, cell viability assay, Promega, code G7571, Ref.)
Cell preparation: Cells (Molt 4) were seeded in 96-well opaque-walled plates. The number of cells (in a volume of 100 μL/well) was: 5×10^4 cells/well. Control wells contained 100 μL medium without cells (background luminescence) Incubations were performed at 37° C., 6% CO2, using the following culture medium: RPMI 1640, 10% FCS, 2 mM L-Glutamine and penicillin 200 U/ml+200 μg/ml streptomycin or equivalent. For the cell viability assay, cells were incubated for 12 min-24 hr. in the absence or presence of methyl jasmonate or several jasmonate derivatives of the present invention at 0.05-4 mM. Reagent Preparation The CellTiter-Glo® buffer and the lyophilized substrate were thawed and equilibrated to room temperature. The buffer was mixed with the substrate by vortexing for 1 minute. […]
The plates were equilibrated to room temperature [25° C.] for 30 min. […] The plates were allowed to incubate at 25° C. for 10 min in the Luminoskan to stabilize luminescence signal. Results were read through Record luminescence [Thermo-Luminoskan Ascent] or equivalent, with integration time of 2000 m. seconds per well and blanking time 5%. […] Percent of cytotoxicity was determined described above.

Molt-4 (leukemia) cells [6] = settings: cited from earlier work
[7] = tested on: normal peripheral blood lymphocytes (PBL), -PHA/TPA; settings: cited from earlier work
lymphomas = settings: mice; cited from earlier work

For `CCCCCC1c2nc(NC(=O)c3cnccn3)sc2CC1CC(=O)NC1CC1` (centres unmarked) [Compound A1], the “Cytotoxic potency at 0.1 mM, first screening” value (“Cytotoxic potency at 0.1 mM” below) [1] was “very potent”, the “Cytotoxic potency, second screen” value [1] was “most potent” and the “Cytotoxic potency compared to methyl jasmonate, first screening” value [1] was “more potent than methyl jasmonate”.

In the case of `CCCCCC1c2nc(NS(=O)(=O)c3cccc(F)c3)sc2CC1CC(=O)OC` (centres unmarked) [Compound A5], the “Cytotoxic potency at 0.1 mM” value [1] is reported as “very potent” and the “Cytotoxic potency compared to methyl jasmonate, first screening” value [1] is reported as “more potent than methyl jasmonate”.

In the case of `CCCCCC1c2nc(N)sc2CC1CC(=O)N1CCN(C)CC1` (centres unmarked) [Compound A2], the “Cytotoxic potency compared to methyl jasmonate, first screening” value [1] is reported as “more potent than methyl jasmonate”.

For `CCCCCC1c2nc(NC(=O)Cc3cccs3)sc2CC1CC(=O)O` (centres unmarked) [Compound A3], the IC20 [2] was 70 µM, the IC50 [2] was 300 µM and the “Cytotoxic potency at 0.1 mM” value [1] was “very potent”. The “Cytotoxic potency, second screen” value [1] was “most potent”, the “Cytotoxic potency compared to methyl jasmonate, first screening” value [1] was “more potent than methyl jasmonate” and the “Cytotoxic potency compared to methyl jasmonate, third screen” value [1] was “significantly more potent than methyl jasmonate”. The IC20 (Molt-4 (leukemia) cells [3]) was 10 µM, the IC50 (Molt-4 (leukemia) cells [3]) was 50 µM and the IC20 [4] was 30 µM. The IC50 [4] was 250 µM and the “Selective cytotoxic effect: leukemic cells vs normal lymphocytes” value [4] was “without exerting a substantial effect on normal lymphocytes”.

With `CCCCCC1c2nc(Nc3ccccc3)sc2CC1CC(=O)NCCOC` (centres unmarked) [Compound A6] the “Cytotoxic potency at 0.1 mM” value [1] was “very potent”, the “Cytotoxic potency, second screen” value [1] was “most potent” and the “Cytotoxic potency compared to methyl jasmonate, first screening” value [1] was “more potent than methyl jasmonate”.

For `CCCCCC1c2nc(-c3ccccc3)sc2CC1CC(=O)N1CCC(O)CC1` (centres unmarked) [Compound A4], the IC20 [2] was 25 µM, the inhibition at 1 µM [1] was 4% and the inhibition at 10 µM [1] was 10%. For the same molecule, the inhibition at 100 µM [1] was 96%, the “Cytotoxic potency at 0.1 mM” value [1] was “very potent” and the “Cytotoxic potency, second screen” value [1] was “most potent”. For the same molecule, the “Cytotoxic potency compared to methyl jasmonate, first screening” value [1] was “more potent than methyl jasmonate”, the “Cytotoxic potency compared to methyl jasmonate, third screen” value [1] was “significantly more potent than methyl jasmonate” and the IC20 (Molt-4 (leukemia) cells [3]) was < 10 µM. The IC50 (Molt-4 (leukemia) cells [3]) was 45 µM, the IC20 [4] was < 10 µM and the “Selective cytotoxic effect: leukemic cells vs normal lymphocytes” value [4] was “without exerting a substantial effect on normal lymphocytes”.

With `CC/C=C\CC1C(=O)CCC1CCOC(=O)CC1CCC(=O)C1C/C=C\CC` (centres unmarked) [Compound B3] the IC50 (PBL, healthy donors; Homo sapiens, PBL healthy donors, without PHA/TPA, 24 hours, n=12) was 1000 µM, the “Selective cytotoxicity towards cancer cells” value (PBL, healthy donors; Molt-4, CLL vs PBL, FIG. 5) was “exhibits selective cytotoxicity towards cancer cells” and the IC50 (Molt-4) was 70 µM. For the same molecule, the IC50 (HTB38) was > 1000 µM, the IC50 [5] was 250 µM and the IC50 (LNCaP) was > 1000 µM. The IC50 (Fibroblasts) was > 500 µM, the IC50 (NCI H460) was > 1000 µM and the IC50 (B16) was 700 µM. The IC50 (Molt-4 cell line; Homo sapiens, MOLT-4, Molt-4) was 60 µM, the IC50 (Molt-4 cell line; Molt-4, listed as B3 (IV)) was 50 µM and the IC50 (Molt-4 cell line; Molt-4, listed as B3 (V)) was 80 µM. It also gave an IC50 (Molt 4 cell line) of 500 µM.

For `CC/C=C\CC1C(=O)CCC1CC(=O)OC` (centres unmarked) [MJ, methyl jasmonate, reference compound], the IC20 [2] was > 500 µM, the IC50 [2] was > 500 µM and the inhibition at 1 µM [1] was 6%. The inhibition at 10 µM [1] was 5%, the inhibition at 100 µM [1] was 17% and the IC20 (Molt-4 (leukemia) cells [3]) was 30 to 50 µM. For the same molecule, the IC50 (Molt-4 (leukemia) cells [3]) was 100 to 500 µM, the “Cytotoxicity to Molt-4 cells (previously reported data)” value (Molt-4 (leukemia) cells [6]) was “cytotoxic to Molt-4 cells” and the “Toxicity to normal lymphocytes (previously reported data)” value [7] was “almost not toxic to normal lymphocytes”. The “Prevention of development of lymphomas” value (lymphomas) was “effective in preventing development of lymphomas in mice”, the IC20 [4] was > 500 µM and the IC50 [4] was > 500 µM. The IC50 (Molt-4 cell line; Homo sapiens, MOLT-4, Molt-4) was 600 µM and the IC50 (Molt 4 cell line) was 500 µM.
